Test results reported in US5756491A, “Antiviral cobalt-organic compounds” (priority 1991, dated 1998).

Key:
[1] = tested on: HSV-1 McKrae Strain; assay: Direct virucidal efficacy against HSV-1 on HFF monolayers; type: cell-based; conditions: for effective virucidal concentration IC50 / effective virucidal concentration IC90: HSV-1
[2] = tested on: HSV-1 McKrae Strain; assay: Intracellular antiviral activity against HSV-1 in HFF monolayers; type: cell-based; conditions: for antiviral efficacy (HSV-1 titer): Experiment 7 (Table 18), 24 h PI
Protocol: HSV-1 McKrae Strain was diluted to a final concentration of 10^5 PFU/ml in minimal essential medium (MEM). Hereinafter, this dilution is referred to as the HSV-1 Suspension for convenience.
With sufficient stirring, all the compounds completely dissolved.
HFF cell monolayers were inoculated with the HSV-Suspension prepared as above by absorption for thirty minutes at 37° C. After absorption of the virus, the inoculum was aspirated from the cell monolayers and the HSV-1 infected monolayers were rehydrated with medium containing the appropriate concentration of the solution of the compound by adding 500 microliters of each compound concentration to triplicate HSV-1 infected monolayers. All monolayers were incubated at 37° C. The developing HSV-1 cytopathology was monitored daily for two days by inverted light microscopy and titers were calculated by multiple […] analysis. For the intracellular anti-viral activity, "cell monolayer controls" were obtained using sham inoculated non-treated HFF cell monolayers along with the drug treated monolayers. "Positive controls" were obtained by using HSV-1 inoculated non-CTC compound treated HFF monolayers.

[3] = tested on: VZV; assay: In vitro assay with VZV on HFF monolayers; type: cell-based; conditions: for virucidal efficacy (VZV titer): Table 20, 7 days PI
Protocol: VZV was grown to a CPE level in vitro assays with VZV of 3-4+ on HFF cell monolayers. The VZV was scraped from the flask, centrifuged and the cell pellet was resuspended in 10 ml of complete medium. One hundred to 200 μl of the VZV cell associated inoculum was inoculated onto confluent HFF cell monolayers by absorption for 60 minutes at 37° C. After absorption of the virus, the inoculum was aspirated from the cell monolayers.
The VZV-infected monolayers were rehydrated with medium containing the appropriate concentrations of compounds to be tested. All monolayers were incubated at 37° C. Development of VZV cytopathology was monitored daily for 7 days by inverted light microscopy. Titers were calculated by multiple regression analysis.
Sham-inoculated, non-treated HFF cell monolayers were included among with the drug-treated monolayers as cell monolayer controls.
VZV inoculated, non-treated HFF monolayers were included as positive controls.

[4] = tested on: RE strain HSV-1; assay: HSV-1 recovery from tear film, cornea and trigeminal ganglia of treated rabbits; type: in vivo, NZW rabbit
How it was run: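 NZW rabbits (1.5-2.0 kg) were inoculated bilaterally by intrastromal injection of 10^5 PFU HSV-1. Tear-film swabs on days 0, 3, 5 and 7 PI were cultured on HFF monolayers and scored for CPE. After sacrifice, corneal epithelial/stromal and trigeminal ganglion co-cultures were scored positive or negative for HSV CPE; negative ganglion cultures were blind-passaged twice.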

[5] = tested on: HFF cells; assay: Neutral red uptake toxicity; type: cell-based, human; conditions: stationary cells

## CC([O-])=CC(C)=NCCN=C(C)C=C(C)[O-].Cc1ncc[nH]1.Cc1ncc[nH]1.[Br-].[Co+3] [Compound 96]
[1]; Experiment 2 (Table 5), 24 h PI, 0.001 mg/ml
  virucidal efficacy (HSV-1 titer): 10^4 PFU/ml
[1]; Experiment 2 (Table 5), 24 h PI, 1 mg/ml
  virucidal efficacy (HSV-1 titer): 0 PFU/ml
[1]; Experiment 2 (Table 5), 48 h PI, 0.01 mg/ml
  virucidal efficacy (HSV-1 titer): 10^6 PFU/ml
[1]; Experiment 2 (Table 5), 48 h PI, 1 mg/ml
  virucidal efficacy (HSV-1 titer): 0 PFU/ml
[1]; Experiment 2 (Table 6)
  effective virucidal concentration IC50: 100 µg/mL
[1]; Experiment 3 (Table 8), 24 h PI, 0.001 mg/ml
  virucidal efficacy (HSV-1 titer): 10^5 PFU/ml
[1]; Experiment 3 (Table 8), 24 h PI, 1 mg/ml
  virucidal efficacy (HSV-1 titer): 0 PFU/ml
[1]; Experiment 3 (Table 8), 48 h PI, 1 mg/ml
  virucidal efficacy (HSV-1 titer): 10^5 PFU/ml
[1]; Experiment 4 (Table 9), 24 h PI, Run 1, 5 mg/ml
  virucidal efficacy (HSV-1 titer): 0 PFU/ml
[1]; Experiment 4 (Table 9), 24 h PI, Run 2, 0.01 mg/ml
  virucidal efficacy (HSV-1 titer): 10^4 PFU/ml
[1]; Experiment 4 (Table 9), 24 h PI, Run 2, 0.1 mg/ml
  virucidal efficacy (HSV-1 titer): 10^2 PFU/ml
[1]; Experiment 4 (Table 9), 24 h PI, Run 2, 1 mg/ml
  virucidal efficacy (HSV-1 titer): 0 PFU/ml
[1]; Experiment 4 (Table 9), 24 h PI, Run 2, 5 mg/ml
  virucidal efficacy (HSV-1 titer): 0 PFU/ml
[1]; Experiment 4 (Table 11)
  effective virucidal concentration IC90: > 1000 µg/mL
[1]; Experiment 5 (Table 12), 24 h PI, Run 1, 0.0001 mg/ml
  virucidal efficacy (HSV-1 titer): 10^5 PFU/ml
[1]; Experiment 5 (Table 12), 24 h PI, Run 1, 0.1 mg/ml
  virucidal efficacy (HSV-1 titer): 10^2 PFU/ml
[1]; Experiment 5 (Table 12), 24 h PI, Run 1, 1 mg/ml
  virucidal efficacy (HSV-1 titer): 0 PFU/ml
[1]; Experiment 5 (Table 12), 24 h PI, Run 1, 5 mg/ml
  virucidal efficacy (HSV-1 titer): 0 PFU/ml
[1]; Experiment 5 (Table 12), 24 h PI, Run 2, 0.0001 mg/ml
  virucidal efficacy (HSV-1 titer): 10^3 PFU/ml
[1]; Experiment 5 (Table 12), 24 h PI, Run 2, 0.001 mg/ml
  virucidal efficacy (HSV-1 titer): 10^3 PFU/ml
[1]; Experiment 5 (Table 12), 24 h PI, Run 2, 0.01 mg/ml
  virucidal efficacy (HSV-1 titer): 10^3 PFU/ml
[1]; Experiment 5 (Table 12), 24 h PI, Run 2, 0.1 mg/ml
  virucidal efficacy (HSV-1 titer): 0 PFU/ml
[1]; Experiment 5 (Table 12), 24 h PI, Run 2, 1 mg/ml
  virucidal efficacy (HSV-1 titer): 0 PFU/ml
[1]; Experiment 5 (Table 12), 24 h PI, Run 2, 5 mg/ml
  virucidal efficacy (HSV-1 titer): 0 PFU/ml
[1]; Experiment 5 (Table 14)
  effective virucidal concentration IC50: 100 to 1000 µg/mL
  effective virucidal concentration IC90: > 1000 µg/mL
[1]; Experiment 6 (Table 16), 24 h PI, 0.5 mg/ml
  virucidal efficacy (HSV-1 titer): 0 PFU/ml
[1]; Experiment 6 (Table 16), 24 h PI, 1 mg/ml
  virucidal efficacy (HSV-1 titer): 0 PFU/ml
[1]; Experiment 6 (Table 16), 24 h PI, 2 mg/ml
  virucidal efficacy (HSV-1 titer): 0 PFU/ml
[1]; Experiment 6 (Table 16), 24 h PI, 5 mg/ml
  virucidal efficacy (HSV-1 titer): 0 PFU/ml
[1]; Experiment 6 (Table 17)
  effective virucidal concentration IC50: 100 µg/mL
[1]; Experiment 6 comment, reduction in toxicity resulted in it
  efficacy in virucidal assay (comment): reduction in efficacy
[2]; 0.1 mg/ml
  antiviral efficacy (HSV-1 titer): 10^2 PFU/ml
[2]; 2 mg/ml
  antiviral efficacy (HSV-1 titer): 0 PFU/ml
[2]; 5 mg/ml
  antiviral efficacy (HSV-1 titer): 0 PFU/ml
[2]; Experiment 7 (Table 19), HSV-1
  effective virucidal concentration IC50: 500 to 1000 µg/mL
[3]; 0.001 mg/ml
  virucidal efficacy (VZV titer): 10^4 PFU/ml
[3]; 0.01 mg/ml
  virucidal efficacy (VZV titer): 10^2 PFU/ml
[3]; 0.1 mg/ml, toxicity observation questionable
  virucidal efficacy (VZV titer): T?
[3]; 2 mg/ml
  virucidal efficacy (VZV titer): 0 PFU/ml
[3]; 5 mg/ml
  virucidal efficacy (VZV titer): 0 PFU/ml
[3]; Table 21, VZV
  effective virucidal concentration IC50: 10 µg/mL
[4]; Example 3 (Table 22)
  HSV-1 recovery, corneal epithelium (C.E.): 50%
  HSV-1 recovery, corneal stroma (C.S.): 50%
  HSV-1 recovery, trigeminal ganglia (T.G.): 50%
[4]; Example 3 (Table 22), day 3 PI
  HSV-1 recovery, tear film (positive samples of total): 100%
[4]; Example 3 (Table 22), day 5 PI
  HSV-1 recovery, tear film (positive samples of total): 100%
[4]; Example 3 (Table 22), day 7 PI
  HSV-1 recovery, tear film (positive samples of total): 80%
[4]; Example 3 (Table 22), day 9 PI
  HSV-1 recovery, tear film (positive samples of total): 0%
[4]; Example 4
  recovery of HSV-1 in tear film: reduced the recovery of HSV-1 in tear film
[4]; Example 5 (Table 23)
  HSV-1 recovery, corneal stroma: 70%
[4]; Example 5 (Table 23), column 1
  HSV-1 recovery (positive cultures per total): 0%
[4]; Example 5 (Table 23), column 3
  HSV-1 recovery (positive cultures per total): 100%
[4]; Example 5 (Table 23), column 5
  HSV-1 recovery (positive cultures per total): 90%
[4]; Example 5 (Table 23), column 7
  HSV-1 recovery (positive cultures per total): 70%
[5]
  toxicity IC50, neutral red uptake: 22.0 MCG/ML
